Measured values published in patent US12043630B2, “Polymorphic form of TG02 for treating cancer” (Cothera Bioscience, Inc., priority 2017, dated 2024).
Counter-ions that a name gives are not always drawn.

Test: Polymorphic form conversion over time
Format: physicochemical
Procedure: Preparation: A solution containing TG02·HCl (77.1 g), EtOH (2340 mL) and H2O (185 mL) was heated at reflux for 0.5 h. The mixture was cooled to […] and stirred for 2 h. The mixture was filtered, and the filter cake was washed with EtOH and dried to give TG02 Form VIII (HCl).

CN1C/C=C/CCOc2cccc(c2)-c2ccnc(n2)Nc2cccc(c2)C1 [TG02 Form VIII (HCl), (16E)-14-methyl-20-oxa-5,7,14,26-tetraazatetracyclo[19.3.1.1(2,6).1(8,12)]heptacosa-1(25),2(26),3,5,8(27),9,11,16,21,23-decaene]
Form conversion over time: gradually converted to TG02 Form VI (HCl) over time
